# From patent publication US20240279201A1, “DUAL WNT SIGNALING PATHWAY INHIBITORS AND AMPK ACTIVATORS FOR TREATMENTS OF DISEASE” (priority 2021, published 2024)
# How the values were obtained:
# [1] = tested on: Wnt/β-Catenin signaling pathway; assay: Wnt signaling luciferase (TOPflash) reporter gene assay; type: cell-based; details: for IC50: luciferase reporter gene assay, mean of three independent experiments, read-out: IC50 (nM) to inhibit the Wnt signaling activity
# Excerpt: A dual-luciferase gene reporter assay was used to test inhibitory activities of new compounds on Wnt signaling. […] Therefore, the effects of new compounds on AMPK was examined. […]
# [2] = Cytotoxicity (CC50) during the luciferase gene reporter assay; type: cell-based; details: human, HEK293 cells; short treatment duration of the luciferase gene reporter assay
IC50 [1],SMILES,inhibition at 1 µM [1],CC50 [2]
2.5 nM,"Cc1c(C(=O)Nc2nc3ccccc3s2)nnn1-c1c(F)cccc1F [YA6090, N-(Benzo[d]thiazol-2-yl)-1-(2,6-difluorophenyl)-5-methyl-1H-1,2,3-triazole-4-carboxamide]",97%,> 92000 nM
> 1000 nM,Cc1ccccc1-n1nnc(C(=O)Nc2nc(-c3ccccc3Cl)cs2)c1C [YA4145],–,> 92000 nM
18 nM,Cc1cccc(-n2nnc(C(=O)Nc3nc4ccccc4s3)c2C)c1C [YA4037],83%,> 92000 nM
> 1000 nM,"Cc1ccccc1-n1nnc(C(=O)Nc2cccc3cccnc23)c1C [YA6055, 5-Methyl-N-(quinolin-8-yl)-1-(o-tolyl)-1H-1,2,3-triazole-4-carboxamide]",–,> 92000 nM
> 1000 nM,"Cc1ccccc1-n1nnc(C(=O)Nc2nc(-c3ccccc3)c(-c3ccccc3)s2)c1C [YA4133, N-(4,5-Diphenylthiazol-2-yl)-5-methyl-1-(o-tolyl)-1H-1,2,3-triazole-4-carboxamide]",49%,> 92000 nM
1.7 nM,"Cc1c(C(=O)Nc2cnc3ccccc3n2)nnn1-c1ccccc1 [YA6141, 5-Methyl-1-phenyl-N-(quinoxalin-2-yl)-1H-1,2,3-triazole-4-carboxamide]",–,> 92000 nM
> 1000 nM,"Cc1ccccc1-n1nnc(C(=O)Nc2nc3c(Br)cccc3s2)c1C [YA4097, N-(4-Bromobenzo[d]thiazol-2-yl)-5-methyl-1-(o-tolyl)-1H-1,2,3-triazole-4-carboxamide]",11%,> 92000 nM
> 1000 nM,"Cc1ccccc1-n1nnc(C(=O)Nc2cc3ccccc3cn2)c1C [YA6164, N-(Isoquinolin-3-yl)-5-methyl-1-(o-tolyl)-1H-1,2,3-triazole-4-carboxamide]",–,> 92000 nM
251 nM,"CC(C)(C)c1c(C(=O)Nc2nc3ccccc3s2)nnn1-c1ccccc1F [YA6176, N-(Benzo[d]thiazol-2-yl)-5-(tert-butyl)-1-(2-fluorophenyl)-1H-1,2,3-triazole-4-carboxamide]",58%,> 92000 nM
> 1000 nM,"Cc1c(C(=O)Nc2nc3ccccc3s2)nnn1-c1cccc(F)c1 [YA1072, N-(Benzo[d]thiazol-2-yl)-1-(3-fluorophenyl)-5-methyl-1H-1,2,3-triazole-4-carboxamide]",42%,> 92000 nM
> 1000 nM,Cc1cc(Br)ccc1-n1nnc(C(=O)Nc2nc3ccccc3s2)c1C [YA6009],15%,> 92000 nM
> 1000 nM,"Cc1c(C(=O)Nc2nc(-c3ccccc3)cs2)cnn1-c1ccccc1Br [YA4087, 1-(2-Bromophenyl)-5-methyl-N-(4-phenylthiazol-2-yl)-1H-pyrazole-4-carboxamide]",–,> 92000 nM
> 1000 nM,"Cc1ccccc1-n1nnc(C(=O)Nc2ccc3cccc(CN4CCN(C(=O)OC(C)(C)C)CC4)c3n2)c1C [YA6160, tert-Butyl 4-((2-(5-methyl-1-(o-tolyl)-1H-1,2,3-triazole-4-carboxamido)quinolin-8-yl)methyl)piperazine-1-carboxylate]",–,> 92000 nM
7.82 nM,"Cc1c(C(=O)Nc2nc3ccccc3s2)nnn1-c1ccccc1 [YA6029, N-(Benzo[d]thiazol-2-yl)-5-methyl-1-phenyl-1H-1,2,3-triazole-4-carboxamide]",81%,> 92000 nM
0.9 nM,"Cc1c(C(=O)Nc2nc3ccccc3s2)cnn1-c1c(F)cccc1F [YA4019, N-(benzo[d]thiazol-2-yl)-1-(2,6-difluorophenyl)-5-methyl-1H-pyrazole-4-carboxamide]",–,> 92000 nM
0.5 nM,"CCc1c(C(=O)Nc2nc3ccc(F)cc3s2)nnn1-c1ccccc1F [YA4165, 5-Ethyl-N-(6-fluorobenzo[d]thiazol-2-yl)-1-(2-fluorophenyl)-1H-1,2,3-triazole-4-carboxamide]",–,> 92000 nM
> 1000 nM,"Cc1c(C(=O)Nc2nc3ccccc3s2)nnn1-c1ccc(Br)cc1 [YA1086, N-(Benzo[d]thiazol-2-yl)-1-(4-bromophenyl)-5-methyl-1H-1,2,3-triazole-4-carboxamide]",32%,> 92000 nM
> 1000 nM,"Cc1ccccc1-n1nnc(C(=O)Nc2ccc3ncccc3c2)c1C [YA6056, 5-Methyl-N-(quinolin-6-yl)-1-(o-tolyl)-1H-1,2,3-triazole-4-carboxamide]",–,> 92000 nM
202 nM,"Cc1ccccc1-n1nnc(C(=O)Nc2nc3cc(Cl)ccc3s2)c1C [YA4013, N-(5-Chlorobenzo[d]thiazol-2-yl)-5-methyl-1-(o-tolyl)-1H-1,2,3-triazole-4-carboxamide]",61%,> 92000 nM
> 1000 nM,"Cc1c(C(=O)Nc2nc3ccccc3s2)nnn1-c1ccc(F)cc1F [YA1046, N-(Benzo[d]thiazol-2-yl)-1-(2,4-difluorophenyl)-5-methyl-1H-1,2,3-triazole-4-carboxamide]",40%,> 92000 nM
0.46 nM,"Cc1c(C(=O)Nc2nc3ccccc3s2)nnn1-c1ccccc1F [YA4029, N-(benzo[d]thiazol-2-yl)-1-(2-fluorophenyl)-5-methyl-1H-1,2,3-triazole-4-carboxamide]",100%,> 92000 nM
> 1000 nM,"Cc1ccccc1-n1nnc(C(=O)Nc2nc3ccc(C(F)(F)F)cc3s2)c1C [YA4063, 5-Methyl-1-(o-tolyl)-N-(6-(trifluoromethyl)benzo[d]thiazol-2-yl)-1H-1,2,3-triazole-4-carboxamide]",24%,> 92000 nM
> 1000 nM,Cc1ccccc1-c1csc(NC(=O)c2nnn(-c3ccccc3C)c2C)n1 [YA4171],–,> 92000 nM
3.3 nM,"Cc1cccc(F)c1-n1nnc(C(=O)Nc2nc3ccccc3s2)c1C [YA1042, N-(Benzo[d]thiazol-2-yl)-1-(2-fluoro-6-methylphenyl)-5-methyl-1H-1,2,3-triazole-4-carboxamide]",92%,> 92000 nM
> 1000 nM,"Cc1ccccc1-n1ncc(C(=O)Nc2nc(-c3ccccc3)cs2)c1C [YA7015, 5-Methyl-N-(4-phenylthiazol-2-yl)-1-(o-tolyl)-1H-pyrazole-4-carboxamide]",–,> 92000 nM
220 nM,"Cc1c(C(=O)Nc2ncc(-c3ccccc3)s2)cnn1-c1ccccc1Br [YA6152, 1-(2-Bromophenyl)-5-methyl-N-(5-phenylthiazol-2-yl)-1H-pyrazole-4-carboxamide]",–,> 92000 nM
> 1000 nM,Cc1ccccc1-n1nnc(C(=O)Nc2nc(-c3ccccc3F)cs2)c1C [YA4143],–,> 92000 nM
> 1000 nM,Cc1cc(C(=O)Nc2nc3ccccc3s2)c(C)n1-c1ccccc1 [YA4136],–,> 92000 nM
> 1000 nM,"Cc1ccccc1-n1ncc(C(=O)Nc2ccc(-c3ccccc3)cn2)c1C [YA7018, 5-Methyl-N-(5-phenylpyridin-2-yl)-1-(o-tolyl)-1H-pyrazole-4-carboxamide]",–,> 92000 nM
0.4 nM,"Cc1c(C(=O)Nc2nc3ccccc3s2)cnn1-c1ccccc1Cl [YA4025, N-(Benzo[d]thiazol-2-yl)-1-(2-chlorophenyl)-5-methyl-1H-pyrazole-4-carboxamide]",–,> 92000 nM
